According to patent publication US20130231377A1, “PACTAMYCIN ANALOGS AND METHODS OF USE” (State of Oregon acting by and through the state Board of …, priority 2010, published 2013):
pEC50, pIC50: −log10 of the molar value.

Key:
Staphylococcus aureus [1] = assay: Antibacterial agar diffusion assay (Example 2); assay type: cell-based
Procedure: (§1) Antibacterial activity of pactamycin and its analogues was determined by an agar diffusion assay. E. coli, Pseudomonas aeruginosa, Mycobacterium smegmatis, and Staphylococcus aureus were streaked on nutrient agar (Difco) and grown overnight at 37° C. Colonies were transferred to nutrient broth and incubated at 37° C. for 24 hours. Turbidity of the inoculum was measured to a proper density at 600 nm (BioRad, SmartSpec 3000). For plate preparation, inoculum (500 μL) was mixed thoroughly with warm nutrient agar (50 mL) and poured to 25 mL square plates. The agar plates were allowed to solidify and dry for 30 minutes before assay. Sterile blank paper disks (Becton-Dickinson) were impregnated with pactamycin and its analogues (20 μL) at various concentrations and dried at room temperature. The disks were placed onto inoculated agar plates and incubated at 37° C. for 24 hours. In order to produce a contrast background of the inhibition zone, 0.25% MTT developing dye (1 mL) was added over the plates.

Pseudomonas aeruginosa [2] = assay: Antibacterial agar diffusion assay (Example 2); assay type: cell-based
Procedure: as §1

Mycobacterium smegmatis = assay: Antibacterial agar diffusion assay (Example 2); assay type: cell-based
Procedure: as §1

Escherichia coli = assay: Antibacterial micro-dilution assay (Example 1); assay type: cell-based; conditions: 24 hours, read-out: IC50 against Escherichia coli
Procedure: (§2) The antibacterial activity of pactamycin and its analogs was determined by agar diffusion and micro-dilution assays. E. coli, P. aeruginosa, B. subtilis or M. smegmatis, and S. aureus were streaked on nutrient agar (Difco or Beckton-Dickinson) and grown overnight at 37° C. Colonies were transferred to nutrient broth and incubated at 37° C. for 24 hours. Turbidity of the inoculum was measured to a proper density at 600 nm (BioRad, SmartSpec 3000). For plate preparation, inoculum (500 μL) was mixed thoroughly with warm nutrient agar (50 mL) and poured to 25 mL square plates. The agar plates were allowed to solidify and dry for 30 min before assay. Sterile blank paper disks (Becton-Dickinson) were impregnated with pactamycin and its analogs (20 μL) at various concentrations and dried at room temperature. The disks were placed onto inoculated agar plates and incubated at 37° C. for 24 hours. In order to produce a contrast background of the inhibition zone, 0.25% MTT developing dye (1 mL) was added over the plates.
(§3) Micro-dilution assays were performed in 96-well plates. The compounds were serially diluted and added to the bacterial suspension at final concentrations of 1 mM-10 nM, or 0.5 mM-10 nM. After incubation at 37° C. for 24 hours, 0.25% MTT developing dye (50 μL) was added. Each assay was done in triplicate.

Staphylococcus aureus [3] = assay: Antibacterial micro-dilution assay (Example 1); assay type: cell-based; conditions: 24 hours, read-out: IC50 against Staphylococcus aureus
Procedure: as §2, §3

Pseudomonas aeruginosa [4] = assay: Antibacterial micro-dilution assay (Example 1); assay type: cell-based; conditions: 24 hours, read-out: IC50 against Pseudomonas aeruginosa
Procedure: as §2, §3

Bacillus subtilis = assay: Antibacterial micro-dilution assay (Example 1); assay type: cell-based; conditions: 24 hours, read-out: IC50 against Bacillus subtilis
Procedure: as §2, §3

E. coli = assay: Antibacterial agar diffusion assay (Example 2); assay type: cell-based, Escherichia coli
Procedure: as §1

[5] = test system: Gram-positive and Gram-negative bacteria; assay: Antibacterial agar diffusion and micro-dilution assays, all tested strains (Example 1); assay type: cell-based, S. aureus, B. subtilis, P. aeruginosa, E. coli; conditions: at the concentrations used
Procedure: as §2, §3

[6] = Cytotoxicity assay (WST-8) against HCT116 cells; assay type: cell-based; conditions: human, HCT116 colorectal carcinoma cells, estimated
Procedure: HCT116 (colorectal carcinoma) cells were seeded onto a 96-well plate at 10,000 cells per well. Cells were treated with either 5, 50, 500 or 5000 nM TM-025, TM-026, N-acetyl-glucosaminyl-3-aminoacetophenone or 5, 25, 50, 100 nM pactamycin in triplicate for 48 hours. For the narrow range concentration assays, cells were treated with either 0.5, 1, 2 or 4 μM TM-025; 1, 2, 3 or 5 μM TM-026; 0.5, 2, 5 or 7 μM N-acetylglucosaminyl-3-aminoacetophenone or 12.5, 25, 50, 100 nM pactamycin in triplicate for 24 or 48 hours. WST-8 [2-(2-methoxy-4-nitrophenyl)-3-[…], monosodium salt] (Dojindo, Rockville, Md.) was added to each well to give an orange-colored formazan product, which is soluble in tissue culture medium. Absorbance was measured at 450 nm. Percent of viable cells was calculated relative to the “No Treatment” and “Solvent Only” wells.

[7] = test system: chloroquine-sensitive clone D6 of P. falciparum; assay: Antimalarial activity assay, SYBR Green I fluorescence-based method; assay type: cell-based, Plasmodium falciparum; conditions: Plasmodium falciparum
Procedure: (§4) An antimalarial activity assay was carried out at the Oregon Translational Research and Drug Development Institute (OTRADI). Two strains of P. falciparum were used. The chloroquine-sensitive clone D6, and chloroquine-resistant and MDR clone Dd2 was obtained from the Malaria Research and Reference Reagent Resource Center (MR4) (Manassas, Va.). The parasites were cultured according to the method of Trager and Jensen (Trager and Jensen, Science, 1976, 193:673-675), with minor modifications. The cultures were maintained in human erythrocytes (Lampire Biological Laboratories, Pipersville, Pa.), suspended at 2% hematocrit in RPMI 1640 (Sigma) containing 0.5% Albumax (Invitrogen), […] hypoxanthine (Lancaster), and 50 μg/L gentamicin (Invitrogen), and incubated at 37° C. under a gas mixture of 5% O2, 5% CO2, and 90% N2. In vitro antimalarial activity was determined by a SYBR Green I fluorescence-based method described previously by Smilkstein et al. (Smilkstein et al., Antimicrob. Agents Chemother., 2004, 48:1803-1806). Frozen stock solutions of each test drug (1 mM in DMSO) were thawed, warmed to 37° C., and mixed thoroughly prior to use. Drug solutions were serially diluted with culture medium, and distributed to asynchronous parasite cultures on 96-well plates in quadruplicate in a total volume of 100 μL to achieve 0.2% parasitemia with a 2% hematocrit in a total volume of 100 μL. Automated pipeting and dilution was carried using programmable Precision XS (Bio-Tek, Winooski, Vt.) and Sciclone ALH3000 (Caliper, Hopkinton, Mass.) robotic stations. The plates then were incubated for 72 hours at temperature and gas conditions described above. After incubation, 100 μL of lysis buffer with SYBR Green I was added to each well. The plates were incubated at room temperature for 1 h and then placed in a 96-well fluorescence plate reader (Synergy4, BioTek, Winooski, Vt.) with excitation and emission wavelength at 485 nm and 528 nm, respectively, for measurement of fluorescence. The 50% inhibitory concentration (IC50) was determined by non-linear regression analysis of logistic dose-response curves (GraphPad Prism software).

[8] = test system: chloroquine-resistant and MDR clone Dd2 of P. falciparum; assay: as above; assay type: cell-based, Plasmodium falciparum
Procedure: as §4

[9] = test system: HT-29 human colon carcinoma cells; assay: SRB growth inhibition assay in HT-29 cells; assay type: cell-based; conditions: HT-29 cells, 24 hours
Procedure: Growth inhibition of HT-29 cells induced by the test compounds was also evaluated by the SRB assay, which is based on measuring total biomass by staining the cellular proteins with sulforhodamine B (Skehan et al., J. Natl. Cancer Inst., 1990, 82:1107). After treating the HT-29 cells with the compounds for 24 hours, the adherent cells grown in 96-well plates were fixed with 10% trichloroacetic acid and incubated for 1 hour at 4° C. The plates were washed five times with tap water, dried, and stained with SRB solution (0.4% wt/vol in 1% acetic acid) for 30 minutes at room temperature. The plates were again washed and dried before adding 10 mM Tris base to solubilize the bound stain. Optical densities (OD) were read at 564 nm in SpectraMax 250 and cell growth of treated cells was expressed as the percentage of control cells, ODtest/ODcontrol×100%.

[10] = test system: Gram-positive and Gram-negative bacteria (S. aureus, M. smegmatis, P. aeruginosa, E. coli); assay: Antibacterial dose-response studies, broth microdilution (Example 2); assay type: cell-based; conditions: 0.01 (or 0.1)-100 μM
Procedure: Dose response assays were performed at a 100-μL volume in 200 μL Eppendorf tubes. The compounds were diluted and added to the bacterial suspension at final concentrations of 0.01 (or 0.1)-100 μM. After incubation at 37° C. for 24 hours, turbidity of cultures was measured at 600 nm (Biorad, SmartSpec 3000). Each assay was done in triplicate.
To further evaluate and compare the in vitro efficacy of de-6MSA-pactamycin with that of pactamycin, dose-response studies were done using a broth microdilution method with 0.01 (or 0.1)-100 μM concentrations of pactamycin and de-6MSA-pactamycin (FIGS. 16A-16D). […] Both pactamycin and de-6MSA-pactamycin were maximally active between 1 and 10 μM and effective against both Gram-positive and Gram-negative bacteria.

[11] = test system: human colon cancer HT-29 cells; assay: MTT cell viability assay in HT-29 cells; assay type: cell-based
Procedure: The MTT assay was carried out as described by Mosmann (J. Immunol. Methods, 1983, 65:55). Briefly, human colon cancer HT-29 cells (ATCC) were seeded in 96-well plates at a density of 1.0×10^4 cells per well. The growth medium consisted of phenol red-free RPMI 1640 (Invitrogen, Carlsbad, Calif.) containing 10% fetal bovine serum (Invitrogen, Carlsbad, Calif.), glutamine (2 mM), penicillin (100 units/mL) and streptomycin (100 μg/mL). After a 24-hour incubation at 37° C. in a humidified atmosphere of 5% CO2, the medium was removed and replaced with fresh RPMI 1640 medium (with or without 10% FBS and no penicillin or streptomycin). Increasing concentrations of pactamycin, pactamycate, de-6MSA pactamycin, or de-6MSA-pactamycate dissolved in DMSO were added to cells at a volume of 0.2 mL/well. DMSO was added to control media not to exceed a final concentration of 1%. Following a 24-hour incubation, the medium was aspirated from each well and replaced with fresh RPMI medium with 10% FBS and MTT (0.5 mg/mL). […] The plate was shaken for 10 minutes before reading the absorbance at 570 nm using a microplate reader (SpectraMax 250, Molecular Devices, Sunnyvale, Calif., USA). The viability of treated cells was expressed as the percentage of control cells. […]

Row | Structure (SMILES) | antibacterial activity, growth of Staphylococcus aureus (Staphylococcus aureus [1]) | antibacterial activity, growth of Pseudomonas aeruginosa (Pseudomonas aeruginosa [2]) | antibacterial activity, growth of Mycobacterium smegmatis (Mycobacterium smegmatis) | pIC50 (Escherichia coli) | pIC50 (Staphylococcus aureus [3]) | pIC50 (Pseudomonas aeruginosa [4]) | pIC50 (Bacillus subtilis) | antibacterial activity, growth of E. coli (E. coli) | antibacterial activity in agar diffusion and micro-dilution assays (in words) [5] | pIC50 [6] | pIC50 ([7]; D6, 72 h, P. falciparum D6, 72 hours, read-out: Antimalarial IC50 (D6)) | IC90 ([7]; D6, 72 h, P. falciparum D6, 72 hours, read-out: Antimalarial IC90 (D6)) [nM] | pIC50 ([8]; Plasmodium falciparum, DD2, 72 h, P. falciparum Dd2, 72 hours, read-out: Antimalarial IC50 (Dd2)) | IC90 ([8]; Plasmodium falciparum, DD2, 72 h, P. falciparum Dd2, 72 hours, read-out: Antimalarial IC90 (Dd2)) [nM] | cytotoxicity profile (SRB-based assay) [9] | biological activity compared with pactamycin in dose-response studies [10] | cytotoxicity profile (MTT-based assay) [11] | pEC50 ([7]; D6, Example 2, FIG. 14, read-out: EC50 against the D6 strain) | pEC50 ([8]; Plasmodium falciparum, Example 2, FIG. 14, multi-drug resistant Dd2, read-out: EC50 against the Dd2 strain) | times more effective than chloroquine against Dd2 ([8]; relative to chloroquine) [times]
1 | CC(=O)c1cccc(N[C@H]2[C@H](N)[C@@](NC(=O)N(C)C)([C@H](C)O)[C@@](C)(O)[C@@]2(O)COC(=O)c2c(C)cccc2O)c1 [pactamycin] | inhibited the growth | inhibited the growth | inhibited the growth | ~4.00 | ~5.00 | ~3.30 | ~3.30 | inhibited the growth | strong antibacterial activity | ~7.00 | ~7.62 | 124 | ~7.68 | 187 |  |  |  |  |  | 
2 | CC(=O)c1cccc(N[C@H]2[C@H](N)[C@@](NC(=O)N(C)C)([C@H](C)O)[C@@](C)(O)[C@@]2(O)CO)c1 [de-6MSA-pactamycin] | inhibited the growth | inhibited the growth | inhibited the growth |  |  |  |  | inhibited the growth |  |  |  |  |  |  | equivalent cytotoxicity profiles with the respective parent compounds | equivalent biological activity with the parent molecule | equivalent cytotoxicity profiles with the respective parent compounds | 8.15 | 8.05 | 10
